Results published in patent publication US10286063B2 (priority 2015, dated 2019).
Entries after “also recorded” stand apart in the source; their conditions may differ.

The sequences below were run on Normal subject PBMC.
Format: cell-based, human

| Sequence | suppression of T cell response to pool of H7N9 ICS peptides on co-incubation | suppression of T cell responses to HA peptides from circulating IAV strains |
| --- | --- | --- |
| AVKLYKKLKREMTFHGA [Peptide H7N9-9] | did not suppress T cell responses to the pool of H7N9 epitopes | – |
| IVYWKQWLSLKNLTQ [Peptide H7N9-14A] | – | Reduced responses to the pool of IAV peptides (1-4) |
| PRYVKQRSLLLATG [Peptide H7N9-13] | significantly suppressed T cell response to the pooled peptides; also recorded: significantly decreased | significantly suppressed T cell response to IAV-3; also recorded: Reduced responses to the pool of IAV peptides (1-4); also recorded: able to suppress responses to other immunodominant HA peptides from circulating IAV strains |
| WKQWLSLKNTLTQGSL [Peptide H7N9-14B] | – | Reduced responses to the pool of IAV peptides (1-4) |

Each sequence was assayed on PBMC.
Format: cell-based, human

| Sequence | % Inhibition by HLA-DR blocking Ab | Effect of blocking HLA-DR on peptide-induced T cell response (in words) |
| --- | --- | --- |
| AANIIGILHLILWILDRL [Peptide H7N9-10] | 68% | only partially inhibited |
| AVKLYKKLKREMTFHGA [Peptide H7N9-9] | 100% | – |
| DKLYERVKRQLRENAEED [Peptide H7N9-8] | 89% | only partially inhibited |
| IVYWKQWLSLKNLTQ [Peptide H7N9-14A] | 100% | – |
| KGILGFVFTLTVPSERGLQ [Peptide H7N9-3] | 97% | only partially inhibited |
| PKYVKSNRLVLATG [IAV-4, reference compound] | 96% | only partially inhibited |
| PKYVKSTKLRLATG [IAV-1, reference compound] | 100% | – |
| PRYVKQNTLKLATG [IAV-3, reference compound] | 78% | only partially inhibited |
| PRYVKQRSLLLATG [Peptide H7N9-13] | 100% | – |
| PRYVKQSTLKLATG [IAV-2, reference compound] | 73% | only partially inhibited |
| QITFMQALQLLLEVE [Peptide H7N9-12] | 100% | – |
| QPEWFRNVLSIAPIMFSNK [Peptide H7N9-4] | 100% | – |
| RIDFHWLMLNPNDTVTFS [Peptide H7N9-1] | 46% | only partially inhibited |
| SRKLLLIVQALRDNLEPG [Peptide H7N9-11] | increased response | the response increased in the presence of the blocking antibody; also recorded: response was absent except when HLA-DR was blocked |
| YAEMKWLLSNTDNAAFPQ [Peptide H7N9-2] | 100% | – |
